Test results as given in ChEMBL document CHEMBL1159315, “Constituents of the bark and twigs of Artocarpus dadah with cyclooxygenase inhibitory activity” (J Nat Prod, 2002).

Assays:
[1] = target: Prostaglandin G/H synthase 1 (Homo sapiens, UniProt P23219)
[2] = target: T1, Prostaglandin G/H synthase 2 (Homo sapiens, UniProt P35354)
T1 sequence (P35354 whole entry): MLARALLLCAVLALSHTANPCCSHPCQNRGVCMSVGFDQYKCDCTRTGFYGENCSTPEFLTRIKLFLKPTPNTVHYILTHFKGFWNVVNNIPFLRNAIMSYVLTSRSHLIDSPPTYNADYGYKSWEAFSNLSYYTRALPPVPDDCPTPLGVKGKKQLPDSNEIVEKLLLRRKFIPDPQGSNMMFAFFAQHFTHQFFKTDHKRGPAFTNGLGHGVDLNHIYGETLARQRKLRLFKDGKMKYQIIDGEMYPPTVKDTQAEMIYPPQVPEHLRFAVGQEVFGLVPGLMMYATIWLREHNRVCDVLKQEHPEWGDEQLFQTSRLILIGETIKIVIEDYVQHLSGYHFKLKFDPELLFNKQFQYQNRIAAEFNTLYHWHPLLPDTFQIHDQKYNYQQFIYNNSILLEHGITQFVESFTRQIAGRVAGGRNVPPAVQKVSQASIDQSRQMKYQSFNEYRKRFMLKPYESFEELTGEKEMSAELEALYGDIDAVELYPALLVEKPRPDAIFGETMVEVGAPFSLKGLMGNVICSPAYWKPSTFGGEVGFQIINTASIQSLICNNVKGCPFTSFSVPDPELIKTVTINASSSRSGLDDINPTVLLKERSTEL

[3] = Inhibition of DMBA-induced preneoplastic lesions in mouse mammary gland organ culture at 10 ug/mL; assay type: functional

Prostaglandin G/H synthase 1, sequence (P23219 whole entry): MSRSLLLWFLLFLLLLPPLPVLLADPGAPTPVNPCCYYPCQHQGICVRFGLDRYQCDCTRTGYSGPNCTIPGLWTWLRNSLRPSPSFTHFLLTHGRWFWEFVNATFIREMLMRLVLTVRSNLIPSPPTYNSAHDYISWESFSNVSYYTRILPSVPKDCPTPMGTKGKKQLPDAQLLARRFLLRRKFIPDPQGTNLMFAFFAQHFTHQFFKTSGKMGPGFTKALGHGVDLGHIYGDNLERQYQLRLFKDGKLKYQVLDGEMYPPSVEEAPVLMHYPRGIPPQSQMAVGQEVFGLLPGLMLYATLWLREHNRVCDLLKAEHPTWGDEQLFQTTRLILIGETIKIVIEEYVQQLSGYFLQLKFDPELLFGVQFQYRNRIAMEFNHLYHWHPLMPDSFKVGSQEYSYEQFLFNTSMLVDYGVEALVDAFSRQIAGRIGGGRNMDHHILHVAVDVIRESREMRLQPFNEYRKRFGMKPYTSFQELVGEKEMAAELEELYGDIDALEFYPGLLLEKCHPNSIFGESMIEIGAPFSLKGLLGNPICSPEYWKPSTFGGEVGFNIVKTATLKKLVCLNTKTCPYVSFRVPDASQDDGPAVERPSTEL

SMILES	IC50 [1] [µM]	IC50 [2] [µM]	inhibition at 10 µg/mL [3] [%]
COc1cc(C(O)C(COC(=O)/C=C/c2ccc(O)cc2)Oc2c(OC)cc(/C=C/COC(=O)/C=C/c3ccc(O)cc3)cc2OC)ccc1O (configuration not stated) [DADAHOL A]	> 143	> 143	
C/C(=C/Cc1c(O)ccc(C(=O)/C=C/c2ccc(O)cc2)c1O)COC(=O)/C=C/c1ccc(O)cc1 [GEMICHALCONE B]	14	38.4	33.3
CC(C)=CCc1cc(/C=C/c2cc(O)cc(O)c2)ccc1O	0.61	9.5	7.3
Oc1cc(O)cc(/C=C/c2ccc(O)cc2O)c1 [OXYRESVERATROL]	1.4	109	33.3
COc1cc(C(O)C(COC(=O)/C=C/c2ccc(O)cc2)Oc2ccc(/C=C/COC(=O)/C=C/c3ccc(O)cc3)cc2OC)ccc1O (configuration not stated) [DADAHOL B]	> 150	> 150	
Oc1ccc(/C=C/c2cc(O)cc(O)c2)cc1 [RESVERATROL]			87.5
Oc1cc(O)cc(-c2cc3ccc(O)cc3o2)c1 [MORACIN M]	0.5	22.3	33.3
CC(C)=CCc1cc(/C=C/c2cc(O)cc(O)c2)c(O)cc1O	4.1	36.7	0

Continued, in another order:

IC50 [1] [µM]	IC50 [2] [µM]	SMILES	inhibition at 10 µg/mL [3] [%]
11.7	15	C/C(=C\Cc1c(O)ccc(C(=O)/C=C/c2ccc(O)cc2)c1O)COC(=O)/C=C/c1ccc(O)cc1 [ISOGEMICHALCONE B]	
67.1	> 100	O=C1c2c(O)cc(O)cc2O[C@H](c2ccc(O)cc2O)[C@H]1O [DIHYDROMORIN]	81.5
	69.7	Oc1ccc([C@H]2Oc3cc(O)cc(O)c3C[C@H]2O)cc1 [EPIAFZELECHIN (2R,3R)(-)]	81.5
5.9	46.4	O=C1CC(c2ccc(O)cc2O)Oc2cc(O)cc(O)c21 (configuration not stated) [STEPPOGENIN]	66.7
8.3	19.7	C[C@@H]1O[C@@H](O[C@H]2Cc3c(O)cc(O)cc3O[C@@H]2c2ccc(O)cc2)[C@H](O)[C@H](O)[C@H]1O	0
36.7		Oc1cc(O)c2c(c1)O[C@H](c1ccc(O)c(O)c1)[C@@H](O)C2 [CIANIDANOL]	50
0.48	13.9	CC(C)(O)[C@H](O)Cc1cc(/C=C/c2cc(O)cc(O)c2)ccc1O	
14	> 100	O=c1cc(-c2ccc(O)cc2O)oc2cc(O)cc(O)c12 [NORARTOCARPETIN]	85.2
> 230	> 230	CC1OC(OC2C(=O)c3c(O)cc(O)cc3OC2c2ccc(O)cc2)C(O)C(O)C1O (configuration not stated) [ENGELETIN]	
